The source of these data is ChEMBL document CHEMBL4038307, “Influence of a Basic Side Chain on the Properties of Hypoxia-Selective Nitro Analogues of the Duocarmycins: Demonstration of Substantial Anticancer Activity in Combination with Irradiation or Chemotherapy” (J Med Chem, 2017).

Active and inactive are the calls of the source. The calls are words filed in the database; no cut-off is given here.

Series [1] concerns CWR22R. Kind of series: Antitumor activity against human 22Rv1 cells xenografted in CD-1 Foxn1 nude mouse assessed as median tumor growth delay time at 15 umol/kg, iv after 100 to 120 days in presence of docetaxel. In kind it is functional. In general terms: A xenograft is tissue or cells of one species grown in another, often human tumour cells in immunodeficient mice.
For series [2], the system named is NCI-H1299. Description: Antitumor activity against human H1299 cells xenografted in CD-1 Foxn1 nude mouse assessed as reduction in colony forming cells at 75 umol/kg, iv treated 5 mins after gamma irradiation measured after 18 hrs by excision assay. Format: functional, organism-based.
Series [3] concerns SiHa. Kind of series: Antitumor activity against human SiHa cells xenografted in CD-1 Foxn1 nude mouse assessed as log reduction in colony forming cells under hypoxic condition at 42 umol/kg, iv treated 5 mins after gamma irradiation measured after 18 hrs by excision assay. In kind it is functional.
Series [4] concerns Mus musculus. Kind of series: Toxicity in CD-1 Foxn1 nude mouse xenografted with human 22Rv1 cells at 14 umol/kg, ip. Particulars: in vivo.
In series [5] the test system is CWR22R. Kind of series: Antitumor activity against human 22Rv1 cells xenografted in CD-1 Foxn1 nude mouse assessed as reduction in colony forming cells under hypoxic condition at 30 umol/kg, iv treated 5 mins after gamma irradiation measured after 18 hrs by excision assay. Format: functional, organism-based.
Series [6] deals with CWR22R. Description: Antitumor activity against human 22Rv1 cells xenografted in CD-1 Foxn1 nude mouse assessed as tumor regrowth at 14 umol/kg, iv after 100 to 120 days. In kind it is functional, organism-based.
The test system of series [7] is A2780. Description: Antitumor activity against human A2780 cells xenografted in CD-1 Foxn1 nude mouse assessed as median tumor growth delay time at 15 umol/kg, iv after 100 to 120 days in presence of gemcitabine. Format: functional.
The test system of series [8] is Mus musculus. Description: Toxicity in CD-1 Foxn1 nude mouse xenografted with human A2780 cells at 15 umol/kg, iv after 100 to 120 days in presence of gemcitabine. In kind it is organism-based. Particulars: in vivo.
The subject of series [9] is CWR22R. Kind of series: Antitumor activity against human 22Rv1 cells xenografted in CD-1 Foxn1 nude mouse assessed as tumor regression at 14 umol/kg, iv after 100 to 120 days in presence of docetaxel. Format: functional, organism-based.
Series [10] concerns HCT-116. Description: Antitumor activity against human HCT116 cells xenografted in CD-1 Foxn1 nude mouse assessed as reduction in colony forming cells at 56 umol/kg, iv treated 5 mins after gamma irradiation measured after 18 hrs by excision assay. Format: functional, organism-based.
In series [11] the test system is Mus musculus. Kind of series: Toxicity in CD-1 Foxn1 nude mouse xenografted with human 22Rv1 cells assessed as change in body weight at 14 umol/kg, ip. Particulars: in vivo.
Series [12] concerns NCI-H460. Kind of series: Antitumor activity against human H460 cells xenografted in CD-1 Foxn1 nude mouse assessed as reduction in colony forming cells under hypoxic condition at 75 umol/kg, iv treated 5 mins after gamma irradiation measured after 18 hrs by excision assay. In kind it is functional, organism-based.
Series [13] has as its system A2780. Description: Antitumor activity against human A2780 cells xenografted in CD-1 Foxn1 nude mouse assessed as tumor regrowth at 15 umol/kg, iv after 100 to 120 days. In kind it is functional, organism-based.
Series [14] deals with Mus musculus. Kind of series: Toxicity in CD-1 Foxn1 nude mouse xenografted with human A2780 cells assessed as change in body weight at 15 umol/kg, iv after 100 to 120 days in presence of gemcitabine. In kind it is organism-based. Particulars: in vivo.
Series [15] concerns Mus musculus. Description: Toxicity in CD-1 Foxn1 nude mouse xenografted with human SiHa cells assessed as death at 75 umol/kg, iv. Conditions: in vivo.
The subject of series [16] is Mus musculus. Kind of series: Toxicity in CD-1 Foxn1 nude mouse xenografted with human H460 cells assessed as death at 75 umol/kg, iv. Conditions: in vivo.
The subject of series [17] is Mus musculus. Kind of series: Toxicity in CD-1 Foxn1 nude mouse xenografted with human SiHa cells assessed as death at 13 umol/kg, iv. Conditions: in vivo.
Series [18] concerns Mus musculus. Description: Toxicity in CD-1 Foxn1 nude mouse xenografted with human H460 cells assessed as death at 13 umol/kg, iv. Conditions: in vivo.
Series [19] deals with A2780. Description: Antitumor activity against human A2780 cells xenografted in CD-1 Foxn1 nude mouse assessed as tumor regression at 42 to 56 umol/kg, iv after 8 to 23 days in presence of gemcitabine. In kind it is functional, organism-based.
In series [20] the test system is SiHa. Kind of series: Antitumor activity against human SiHa cells xenografted in CD-1 Foxn1 nude mouse assessed as tumor regression at 42 to 56 umol/kg, iv after more than 100 days in presence of gemcitabine. Format: functional, organism-based.
The test system of series [21] is A2780. Kind of series: Antitumor activity against human A2780 cells xenografted in CD-1 Foxn1 nude mouse assessed as tumor regression at 42 to 56 umol/kg, iv after 100 days. In kind it is functional, organism-based.
In series [22] the test system is Mus musculus. Kind of series: Toxicity in CD-1 Foxn1 nude mouse xenografted with human SiHa cells assessed as body weight change at 42 to 56 umol/kg, iv after 100 to 120 days in presence of gemcitabine. Format: organism-based. Conditions: in vivo.
The test system of series [23] is Mus musculus. Kind of series: Toxicity in CD-1 Foxn1 nude mouse xenografted with human SiHa cells assessed as sporadic acute toxicity at 42 to 56 umol/kg, iv. Conditions: in vivo.
Series [24] has as its system A2780. Description: Antitumor activity against human A2780 cells xenografted in CD-1 Foxn1 nude mouse assessed as tumor regression at 42 to 56 umol/kg, iv after 100 days in presence of gemcitabine. In kind it is functional, organism-based.
The subject of series [25] is SiHa. Description: Antitumor activity against human SiHa cells xenografted in CD-1 Foxn1 nude mouse assessed as tumor regression at 42 to 56 umol/kg, iv after more than 100 days. In kind it is functional, organism-based.
Series [26] concerns CWR22R. Kind of series: Antitumor activity against human 22Rv1 cells xenografted in CD-1 Foxn1 nude mouse assessed as median tumor growth delay time at 32 umol/kg, ip once in every two weeks after 100 to 120 days. In kind it is functional.
Series [27] concerns Mus musculus. Description: Toxicity in CD-1 Foxn1 nude mouse xenografted with human 22Rv1 cells assessed as change in body weight at 32 umol/kg, ip once in every two weeks after 100 to 120 days. Format: organism-based. Conditions: in vivo.
The test system of series [28] is CWR22R. Kind of series: Antitumor activity against human 22Rv1 cells xenografted in CD-1 Foxn1 nude mouse assessed as tumor stasis at 32 umol/kg, ip once in every two weeks after 100 to 120 days. Format: functional, organism-based.
Series [29] has as its system NCI-H460. Kind of series: Antitumor activity against human H460 cells xenografted in CD-1 Foxn1 nude mouse assessed as reduction in colony forming cells under hypoxic condition at 23.7 umol/kg, iv treated 5 mins after gamma irradiation measured after 18 hrs by excision assay. Format: functional, organism-based.
The test system of series [30] is SiHa. Description: Antitumor activity against human SiHa cells xenografted in CD-1 Foxn1 nude mouse assessed as reduction in colony forming cells under hypoxic condition at 23.7 umol/kg, iv treated 5 mins after gamma irradiation measured after 18 hrs by excision assay. In kind it is functional, organism-based.
Series [31] has as its system A2780. Description: Antitumor activity against human A2780 cells xenografted in CD-1 Foxn1 nude mouse assessed as delay in tumor growth at 100 umol/kg, ip four times for every three days after 100 to 120 days. In kind it is functional, organism-based.
The test system of series [32] is SiHa. Description: Antitumor activity against human SiHa cells xenografted in CD-1 Foxn1 nude mouse assessed as tumor regrowth at 237 umol/kg, ip four times for every three days after 100 to 120 days. In kind it is functional, organism-based.
Series [33] concerns Mus musculus. Kind of series: Toxicity in CD-1 Foxn1 nude mouse xenografted with human SiHa cells assessed as lose in body weight at 133 umol/kg, ip four times for every three days after 100 to 120 days. Conditions: in vivo. Format: organism-based.
Series [34] concerns A2780. Description: Antitumor activity against human A2780 cells xenografted in CD-1 Foxn1 nude mouse assessed as tumor regression at 133 umol/kg, ip four times for every three days after 100 to 120 days. In kind it is functional, organism-based.
In series [35] the test system is NCI-H460. Kind of series: Antitumor activity against human H460 cells xenografted in CD-1 Foxn1 nude mouse assessed as log reduction in colony forming cells under hypoxic condition at 56 umol/kg, iv treated 5 mins after gamma irradiation measured after 18 hrs by excision assay. In kind it is functional.

For `Nc1cc2c(c3ccc(S(=O)(=O)NCCOP(=O)(O)O)cc13)C(CCl)CN2C(=O)c1cc2cc(OCCN3CCOCC3)ccc2[nH]1` (configuration not stated), the Time was 17 days in [1] and 14 days in series [7]. Besides, the outcome in [2], in series [5], in [9], in [10] and in series [12] was Active. Moreover, the Activity in series [3] is recorded as greater than 1; in series [4], “Non-Toxic”; in [8], “Non-Toxic”; in series [11], “Non-Toxic”; in series [14] it was “Non-Toxic”. In addition, the outcome in [6] and in [13] was inactive.
Regarding `CN(C)CC(=O)Nc1ccc2[nH]c(C(=O)N3CC(CCl)c4c3cc([N+](=O)[O-])c3cc(S(=O)(=O)NCCOP(=O)(O)O)ccc43)cc2c1` (configuration not stated), the Activity result in series [15] and in series [16] was “Non-Toxic” in each case.
In the case of `CN(C)CCC(=O)Nc1ccc2[nH]c(C(=O)N3CC(CCl)c4c3cc([N+](=O)[O-])c3cc(S(=O)(=O)NCCOP(=O)(O)O)ccc43)cc2c1` (configuration not stated), the Activity result in series [17] and in series [18] was “Toxic” throughout.
Regarding `CN(C)CCOc1ccc2[nH]c(C(=O)N3CC(CCl)c4c3cc([N+](=O)[O-])c3cc(S(=O)(=O)NCCOP(=O)(O)O)ccc43)cc2c1` (configuration not stated), the outcome in series [2], in series [3], in [5], in series [19], in series [20] and in series [10] was Active. For the same compound, the result in series [12], in series [24] and in series [25] was Active. Moreover, the outcome in [21] was inactive. For the same compound, the values for the Activity result in [22] and in series [23] were “Non-Toxic” and “Toxic”, respectively.
Consider `CC(=O)O[C@@]12CO[C@@H]1C[C@H](O)[C@@]1(C)C(=O)[C@H](O)C3=C(C)[C@@H](OC(=O)[C@H](O)[C@@H](NC(=O)OC(C)(C)C)c4ccccc4)C[C@@](O)([C@@H](OC(=O)c4ccccc4)[C@H]21)C3(C)C` [DOCETAXEL ANHYDROUS], for which the Time in series [26] amounted to 13 days. Besides, the Activity entry in [27] is listed as “Toxic”. Also, the result in [28] was inactive.
With `CCN(CC)CCOc1ccc2[nH]c(C(=O)N3CC(CCl)c4c3cc([N+](=O)[O-])c3cc(S(=O)(=O)NCCOP(=O)(O)O)ccc43)cc2c1` (configuration not stated), the outcome in series [29] was inactive. Moreover, the result in [30] was Active.
With `Nc1ccn([C@@H]2O[C@H](CO)[C@@H](O)C2(F)F)c(=O)n1` [GEMCITABINE], the result in series [31], in series [32] and in [34] was Active. The Activity in [33] is recorded as 5%.
With `O=C(/C=C/c1ccc(OCCN2CCOCC2)cc1)N1CC(CCl)c2c1cc([N+](=O)[O-])c1cc(S(=O)(=O)NCCOP(=O)(O)O)ccc21` (configuration not stated), the outcome in series [3] and in [12] was Active. In series [35], the Activity is on record as greater than 1.
